Reference: US5593985A, “Cephalosporin compounds” (priority 1994, dated 1997)
≈ marks a conversion by molar mass, not a printed value. Like-named read-outs stand apart in the source and are kept apart here.

Assays:
Assay type in all cases: cell-based
[1] = test system: Staphylococcus aureus 285; test: MIC, standard strain 5; details: read-out: Minimal Inhibitory Concentration(MIC)
Description: (§1) In order to illustrate antibiotic effectiveness of the compounds of the present invention, the minimal inhibitory concentrations (MIC's) of the representative compounds were determined against standard strains and compared with ceftazidime and cefpirome, which were used as control compounds.
(§2) The MIC values were taken by employing a two-fold dilution method: that is, two-fold serial dilutions of each of the test compounds were made from initial concentration of […]; each 1.5 ml of them was dispersed in 13.5 ml of Muller Hinton agar medium to adjust to […]; the standard test strain which had the concentration of 10^7 CFU/ml was inoculated by medium;and these were incubated at 37° C. for 18 hours.
(§3) The test used twenty kinds of standard test strains which induced urinary tract infections, respiratory organ infections, skin soft tissue infections, plasma infections, gastrointestinal infections, central nervous system infections, most of which produce β-lactamase. The standard test strains used are as follows:
5. Staphylococcus aureus 285

[2] = test system: Enterobacter cloacae P 99; test: MIC, standard strain 19; details: P99, 18 h, read-out: Minimal Inhibitory Concentration(MIC)
Description: as §1, §2, §3
19. Enterobacter cloacae P 99

Escherichia coli DC 0 = test: MIC, standard strain 8; details: DC0, E. coli DC 0, two-fold dilution, Muller Hinton agar, 10^7 CFU/ml, 37° C., 18 hours, read-out: Minimal Inhibitory Concentration(MIC)
Description: as §1, §2
(§4) The test used twenty kinds of standard test strains which induced urinary tract infections, respiratory organ infections, skin soft tissue infections, plasma infections, gastrointestinal infections, central nervous system infections, most of which produce β-lactamase.

Escherichia coli DC 2 = test: MIC, standard strain 9; details: DC2, E. coli DC 2, two-fold dilution, Muller Hinton agar, 10^7 CFU/ml, 37° C., 18 hours, read-out: Minimal Inhibitory Concentration(MIC)
Description: as §1, §2, §4

[3] = test system: Staphylococcus aureus 503; test: MIC, standard strain 6; details: read-out: Minimal Inhibitory Concentration(MIC)
Description: as §1, §2, §3
6. Staphylococcus aureus 503

[4] = test system: Pseudomonas aeruginosa 1771; test: MIC, standard strain 14; details: Pseudomonas aeruginosa; P. aeruginosa 1771; two-fold dilution, Muller Hinton agar, 10^7 CFU/ml, 37° C., 18 hours; read-out: Minimal Inhibitory Concentration(MIC)
Description: as §1, §2, §3
14. Pseudomonas aeruginosa 1771

[5] = test system: Streptococcus pyogenes A 308; test: MIC, standard strain 1; details: read-out: Minimal Inhibitory Concentration(MIC)
Description: as §1, §2, §3
1. Streptococcus pyogenes A 308

Escherichia coli 0 55 = test: MIC, standard strain 7; details: 055, E. coli 0 55, two-fold dilution, Muller Hinton agar, 10^7 CFU/ml, 37° C., 18 hours, read-out: Minimal Inhibitory Concentration(MIC)
Description: as §1, §2, §4

[6] = test system: Pseudomonas aeruginosa 1592 E; test: MIC, standard strain 13; details: P. aeruginosa 1592 E, two-fold dilution, Muller Hinton agar, 10^7 CFU/ml, 37° C., 18 hours, read-out: Minimal Inhibitory Concentration(MIC)
Description: as §1, §2, §3
13. Pseudomonas aeruginosa 1592 E

[7] = test system: Staphylococcus aureus SG 511; test: MIC, standard strain 4; details: SG511, S. aureus SG 511, two-fold dilution, Muller Hinton agar, 10^7 CFU/ml, 37° C., 18 hours, read-out: Minimal Inhibitory Concentration(MIC)
Description: as §1, §2, §3
4. Staphylococcus aureus SG 511

[8] = test system: Klebsiella aerogenes 1552 E; test: MIC, standard strain 18; details: K. aerogenes 1552 E, two-fold dilution, Muller Hinton agar, 10^7 CFU/ml, 37° C., 18 hours, read-out: Minimal Inhibitory Concentration(MIC)
Description: as §1, §2, §3
18. Klebsiella aerogenes 1552 E

[9] = test system: Streptococcus pyogenes A 77; test: MIC, standard strain 2; details: A77, S. pyogenes A 77, two-fold dilution, Muller Hinton agar, 10^7 CFU/ml, 37° C., 18 hours, read-out: Minimal Inhibitory Concentration(MIC)
Description: as §1, §2, §3
2. Streptococcus pyogenes A 77

Streptococcus faecium 8b = test: MIC, standard strain 3; details: Enterococcus faecium, read-out: Minimal Inhibitory Concentration(MIC)
Description: as §1, §2, §3
3. Streptococcus faecium 8b

Escherichia coli TEM = test: MIC, standard strain 10; details: 18 h, read-out: Minimal Inhibitory Concentration(MIC)
Description: as §1, §2, §4

[10] = test system: Enterobacter cloacae 1321 E; test: MIC, standard strain 20; details: read-out: Minimal Inhibitory Concentration(MIC)
Description: as §1, §2, §3
20. Enterobacter cloacae 1321 E

Escherichia coli 1507 E = test: MIC, standard strain 11; details: E. coli 1507 E, two-fold dilution, Muller Hinton agar, 10^7 CFU/ml, 37° C., 18 hours, read-out: Minimal Inhibitory Concentration(MIC)
Description: as §1, §2, §4

[11] = test system: Pseudomonas aeruginosa 1771M; test: MIC, standard strain 15; details: 18 h, read-out: Minimal Inhibitory Concentration(MIC)
Description: as §1, §2, §3
15. Pseudomonas aeruginosa 1771M

[12] = test system: Pseudomonas aeruginosa 9.027; test: MIC, standard strain 12; details: Pseudomonas aeruginosa; P. aeruginosa 9.027; two-fold dilution, Muller Hinton agar, 10^7 CFU/ml, 37° C., 18 hours; read-out: Minimal Inhibitory Concentration(MIC)
Description: as §1, §2, §3
12. Pseudomonas aeruginosa 9.027

Salmonella typhimurium = test: MIC, standard strain 16; details: Salmonella enterica; S. typhimurium; two-fold dilution, Muller Hinton agar, 10^7 CFU/ml, 37° C., 18 hours; read-out: Minimal Inhibitory Concentration(MIC)
Description: as §1, §2, §3
16. Salmonella typhimurium

[13] = Staphylococcus aureus, S. aureus 503, two-fold dilution, Muller Hinton agar, 10^7 CFU/ml, 37° C., 18 hours
[14] = S. faecium 8b, two-fold dilution, Muller Hinton agar, 10^7 CFU/ml, 37° C., 18 hours
[15] = E. cloacae 1321 E, two-fold dilution, Muller Hinton agar, 10^7 CFU/ml, 37° C., 18 hours
[16] = Staphylococcus aureus, S. aureus 285, two-fold dilution, Muller Hinton agar, 10^7 CFU/ml, 37° C., 18 hours
[17] = A308, S. pyogenes A 308, two-fold dilution, Muller Hinton agar, 10^7 CFU/ml, 37° C., 18 hours

Structure (SMILES)	MIC [2] [µg/mL]	MIC (Escherichia coli DC 0) [µg/mL]	MIC (Escherichia coli DC 2) [µg/mL]	MIC [3, 13] [µg/mL]	MIC [4] [µg/mL]	MIC ([5]; A308, 18 h) [µg/mL]	MIC (Escherichia coli 0 55) [µg/mL]	MIC [6] [µg/mL]	MIC [7] [µg/mL]	MIC [8] [µg/mL]	MIC [9] [µg/mL]	MIC (Streptococcus faecium 8b; [14]) [µg/mL]	MIC (Escherichia coli TEM) [µg/mL]	MIC [10, 15] [µg/mL]	MIC (Escherichia coli 1507 E) [µg/mL]	MIC [11] [µg/mL]	MIC [12] [µg/mL]	MIC (Salmonella typhimurium) [µg/mL]	MIC [1, 16] [µg/mL]	MIC [5, 17] [µg/mL]	also measured
CCOC(=O)c1cc[n+](CC2=C(C(=O)[O-])N3C(=O)[C@@H](NC(=O)/C(=N\OC)c4csc(N)n4)[C@H]3SC2)c2c1CCC2 [Example 1]	25000 (≈ 42600 µM)	49 (≈ 83.5 µM)	25 (≈ 42.6 µM)	781 (≈ 1330 µM)	6250 (≈ 10700 µM)	7 (≈ 11.9 µM)	49 (≈ 83.5 µM)	12500 (≈ 21300 µM)	1560 (≈ 2660 µM)	49 (≈ 83.5 µM)	7 (≈ 11.9 µM)	25000 (≈ 42600 µM)	391 (≈ 666 µM)	25 (≈ 42.6 µM)	49 (≈ 83.5 µM)	391 (≈ 666 µM)	12500 (≈ 21300 µM)	49 (≈ 83.5 µM)			MIC ([1]; Staphylococcus aureus, 285, 18 h): 3120 µg/mL (≈ 5330 µM)
CO/N=C(\C(=O)N[C@@H]1C(=O)N2C(C(=O)[O-])=C(C[n+]3ccc(C(=O)O)c4c3CCC4)CS[C@H]12)c1csc(N)n1 [Example 2]	100000 (≈ 179000 µM)	49 (≈ 87.7 µM)	49 (≈ 87.7 µM)	3120 (≈ 5590 µM)	3120 (≈ 5590 µM)		25 (≈ 44.8 µM)	12500 (≈ 22400 µM)	6250 (≈ 11200 µM)	25 (≈ 44.8 µM)	7 (≈ 12.5 µM)	25000 (≈ 44800 µM)	781 (≈ 1400 µM)	25 (≈ 44.8 µM)	25 (≈ 44.8 µM)	391 (≈ 700 µM)	12500 (≈ 22400 µM)	49 (≈ 87.7 µM)	6250 (≈ 11200 µM)	25 (≈ 44.8 µM)	
CCO/N=C(\C(=O)N[C@@H]1C(=O)N2C(C(=O)[O-])=C(C[n+]3ccc(C(N)=O)c4c3CCC4)CS[C@H]12)c1csc(N)n1 [Example 13, 7-β-[(Z)-2-(2-aminothiazol-4-yl)-2-ethoxyiminoacetamido]-3-[(2,3-cyclopenteno-4-carbamoyl-1-pyridinium)methyl]-3-cephem-4-carboxylate]	12500 (≈ 21900 µM)	98 (≈ 171 µM)	49 (≈ 85.7 µM)	391 (≈ 684 µM)	1560 (≈ 2730 µM)	13 (≈ 22.7 µM)	25 (≈ 43.7 µM)	3120 (≈ 5470 µM)	781 (≈ 1370 µM)	49 (≈ 85.7 µM)	4 (≈ 7 µM)	50000 (≈ 87500 µM)	195 (≈ 341 µM)	25 (≈ 43.7 µM)	98 (≈ 171 µM)	195 (≈ 341 µM)	6250 (≈ 10900 µM)	49 (≈ 85.7 µM)	3120 (≈ 5470 µM)		
NC(=O)c1cc[n+](CC2=C(C(=O)[O-])N3C(=O)[C@@H](NC(=O)/C(=N\OCCF)c4csc(N)n4)[C@H]3SC2)c2c1CCC2 [Example 14, 7-β-[(Z)-2-(2-aminothiazol-4-yl)-2-(2-fluoroethoxyimino)acetamido]-3-[(2,3-cyclopenteno-4-carbamoyl-l-pyridinium)methyl]-3-cephem-4-carboxylate]	12500 (≈ 21200 µM)	49 (≈ 83.1 µM)	49 (≈ 83.1 µM)	781 (≈ 1320 µM)	781 (≈ 1320 µM)		13 (≈ 22 µM)	6250 (≈ 10600 µM)	781 (≈ 1320 µM)	49 (≈ 83.1 µM)	13 (≈ 22 µM)	25000 (≈ 42400 µM)	98 (≈ 166 µM)		49 (≈ 83.1 µM)	391 (≈ 663 µM)	6250 (≈ 10600 µM)	49 (≈ 83.1 µM)	3120 (≈ 5300 µM)	13 (≈ 22 µM)	MIC ([10]; 1321E, 18 h): 25 µg/mL (≈ 42.4 µM)
CO/N=C(\C(=O)N[C@@H]1C(=O)N2C(C(=O)[O-])=C(C[n+]3ccc(NC(C)=O)c4c3CCC4)CS[C@H]12)c1csc(N)n1 [Example 17, 7-β-[(Z)-2-(2-aminothiazol-4-yl)-2-methoxyiminoacetamido]-3-[(4-acetamido-2,3-cyclopenteno-1-pyridinium)methyl]-3-cephem-4-carboxylate]	12500 (≈ 21900 µM)	13 (≈ 22.7 µM)	13 (≈ 22.7 µM)		6250 (≈ 10900 µM)	< 2	25 (≈ 43.7 µM)	6250 (≈ 10900 µM)	781 (≈ 1370 µM)	13 (≈ 22.7 µM)	< 2		25 (≈ 43.7 µM)	13 (≈ 22.7 µM)	25 (≈ 43.7 µM)	1560 (≈ 2730 µM)	12500 (≈ 21900 µM)	49 (≈ 85.7 µM)	1560 (≈ 2730 µM)		MIC ([3]; Staphylococcus aureus, 503, 18 h): 195 µg/mL (≈ 341 µM); MIC (Streptococcus faecium 8b; 8B, 18 h): 100000 µg/mL (≈ 175000 µM)
